Experimental data published in patent US12377110B2, “Fospropofol methods and compositions” (Epalex Corporation, priority 2019, dated 2025).
Read-outs that look alike come from different tables or passages of the source.

Assays:
[1] = Study A16 Part 1: PK of single ascending oral doses of fospropofol disodium (200 to 2000 mg), fasted healthy adults; type: in vivo, human
Description: Part 1 of Study A16 was a double-blind, randomized, placebo-controlled study to investigate the safety-tolerability and PK of oral administration of single ascending doses of fospropofol disodium to healthy adult male and female volunteers.
Subjects were healthy adults (age 18-55 years inclusive, BMI 18-29.9 kg/m^2). Separate cohorts of 12 subjects each were randomized to receive fospropofol disodium at doses of 200, 400, 800, 1000, 1200, 1600, or 2000 mg (n=10 per cohort) or matching placebo (n=2 per cohort).
Subjects were admitted to the clinical unit for an overnight fast (Day −1), administered study drug on Day 1, and remained in the clinical unit until Day 2.
Fospropofol disodium was formulated as powder in an HPMC capsule, each capsule containing 200 mg of fospropofol disodium (weight adjusted for water content). Placebo was administered as an appropriate number of matching capsules.
Based on PK results from the early cohorts, sampling times were optimized beginning with Cohort 3 (800 mg) to preclose, 5, 10, 15, 20, 25, 30, 37, and 45, minutes and 1, 2, 4, 6, and 9 hours after closing.

[2] = Study No. 15-4 toxicokinetics of fospropofol and propofol in plasma; type: in vivo, Beagle dogs; settings: for Tmax: read-out: Fospropofol Tmax; for AUC(0-t): read-out: Fospropofol AUC0-6 hr
Description: The purpose of Study No. 15-4 (GLP) was to determine the potential toxicity of fospropofol in Beagle dogs when administered once daily by oral gavage for 14 days. […] Because the treatment-related clinical observations (consistent with the expected transient sedative actions of fospropofol) and effects on hematology and clinical chemistry parameters were considered nonadverse, the NOAEL was determined to be 160 mg/kg/day (3200 mg/m^2/day).

[3] = Study A16 Part 2: PK of a single dose of 1200 mg fospropofol disodium following a high-fat meal; type: in vivo, human
Description: Part 2 of Study A16 was a double-blind, placebo-controlled, single-close pilot study to investigate the PK, safety, and tolerability of 1200 mg of fospropofol disodium administered to healthy adult men and women following a high-fat meal.
Subjects were healthy adults (age 18-55 years inclusive, BMI 18-29.9 kg/m^2). A separate cohort of 15 subjects was randomly assigned to receive a single oral dose of either fospropofol disodium (n=12) or matching placebo (n=3) within 30 minutes (±1 minute) after the start of a standardized high-fat meal.
Subjects were admitted to the clinical unit for an overnight fast (Day −1), administered study drug on Day 1 within 30 minutes of the start a standardized high-fat meal, and remained in the clinical unit until Day 2.
Fospropofol disodium was formulated as powder in 6 HPMC capsules, each capsule containing 200 mg of fospropofol disodium (weight adjusted for water content). Placebo was administered as 6 matching capsules.

[4] = oral fospropofol disodium 1200 mg, Fasted (Cohort 5), n = 10, mean
[5] = subjects 301-312 (800 mg cohort)
[6] = female, beagle, dog, plasma, po, 50 mg/kg, oral gavage fospropofol disodium, Female, 50 mg/kg, Day 1
[7] = female, beagle, dog, plasma, po, 50 mg/kg, oral gavage fospropofol disodium, Female, 50 mg/kg, Day 14
[8] = female, beagle, dog, plasma, po, 100 mg/kg, oral gavage fospropofol disodium, Female, 100 mg/kg, Day 1
[9] = female, beagle, dog, plasma, po, 100 mg/kg, oral gavage fospropofol disodium, Female, 100 mg/kg, Day 14
[10] = female, beagle, dog, plasma, po, 160 mg/kg, oral gavage fospropofol disodium, Female, 160 mg/kg, Day 1
[11] = female, beagle, dog, plasma, po, 160 mg/kg, oral gavage fospropofol disodium, Female, 160 mg/kg, Day 14
[12] = male, beagle, dog, plasma, po, 50 mg/kg, oral gavage fospropofol disodium, Male, 50 mg/kg, Day 1
[13] = male, beagle, dog, plasma, po, 50 mg/kg, oral gavage fospropofol disodium, Male, 50 mg/kg, Day 14
[14] = male, beagle, dog, plasma, po, 100 mg/kg, oral gavage fospropofol disodium, Male, 100 mg/kg, Day 1
[15] = male, beagle, dog, plasma, po, 100 mg/kg, oral gavage fospropofol disodium, Male, 100 mg/kg, Day 14
[16] = male, beagle, dog, plasma, po, 160 mg/kg, oral gavage fospropofol disodium, Male, 160 mg/kg, Day 1
[17] = male, beagle, dog, plasma, po, 160 mg/kg, oral gavage fospropofol disodium, Male, 160 mg/kg, Day 14

Structure (SMILES): CC(C)c1cccc(C(C)C)c1OCOP(=O)(O)O [fospropofol, (2,6-diisopropylphenoxy)methyl dihydrogen phosphate]
- AUC ([1]; female, human, plasma, oral, 800 mg, females only (800 mg cohort), individual subjects (Subject No. in c0), read-out: Fospropofol Auc1): 4160 ng·h/mL
- AUC ([1]; female, human, plasma, oral, 800 mg, females only (800 mg cohort), individual subjects (Subject No. in c0), read-out: Fospropofol Auc2): 5000 ng·h/mL
- AUC ([1]; female, human, plasma, oral, 800 mg, females only (800 mg cohort), individual subjects (Subject No. in c0), read-out: Fospropofol Auc4): 5160 ng·h/mL
- Tmax ([1]; female, human, plasma, oral, 800 mg, females only (800 mg cohort), individual subjects (Subject No. in c0), read-out: Fospropofol Tmax): 30 min
- Fospropofol Auc1 CV (%) ([1]; females only (800 mg cohort)): 23.3%
- Fospropofol Auc2 CV (%) ([1]; females only (800 mg cohort)): 23.1%
- Fospropofol Auc4 CV (%) ([1]; females only (800 mg cohort)): 23.3%
- Fospropofol Cmax CV (%) ([1]; females only (800 mg cohort)): 32.2%
- Fospropofol Tmax CV (%) ([1]; females only (800 mg cohort)): 27.3%
- Fospropofol CL/F ([1]; oral fospropofol disodium 200 mg, mean): 277 L/h
- Fospropofol CL/F ([1]; oral fospropofol disodium 400 mg, mean): 211 L/h
- Fospropofol CL/F ([1]; oral fospropofol disodium 800 mg, mean): 254 L/h
- Fospropofol CL/F ([1]; oral fospropofol disodium 1000 mg, mean): 229 L/h
- Fospropofol AUC0-T [1, 4]: 4399 ng·h/mL
- Fospropofol CL/F [1, 4]: 288 L/h
- Fospropofol CL/F ([1]; oral fospropofol disodium 1200 mg, mean): 288 L/h
- Fospropofol CL/F ([1]; oral fospropofol disodium 1600 mg, mean): 270 L/h
- Fospropofol CL/F ([1]; oral fospropofol disodium 2000 mg, mean): 204 L/h
- Fospropofol AUC1 CV (%) [1, 5]: 23.6%
- Fospropofol AUC2 CV (%) [1, 5]: 26.0%
- Fospropofol AUC4 CV (%) [1, 5]: 27.2%
- Fospropofol Cmax CV (%) [1, 5]: 30.7%
- Fospropofol Tmax CV (%) [1, 5]: 29.2%
- Sex differences in fospropofol Cmax or AUC0-6h ([2]; 50, 100, and 160 mg/kg/day for 14 days): no clear sex differences
- Tmax ([2]; Beagle, dog, plasma, oral, range over all groups): 5 to 60 min
- Increase of fospropofol Cmax and AUC0-6hr with dose ([2]; Days 1 and 14, males and females (except females on Day 14)): less than close proportional
- half-life ([2]; both sexes, Beagle, dog, plasma, oral, males and females, read-out: Fospropofol apparent individual terminal half-lives): 18 to 36 min
- Cmax [2, 6]: 3680 ng/mL
- AUC(0-t) [2, 6]: 4710 ng·h/mL
- Tmax [2, 6]: 30 to 60 min
- Cmax [2, 7]: 3770 ng/mL
- AUC(0-t) [2, 7]: 5730 ng·h/mL
- Tmax [2, 7]: 30 to 60 min
- Cmax [2, 8]: 10100 ng/mL
- AUC(0-t) [2, 8]: 11900 ng·h/mL
- Tmax [2, 8]: 15 to 30 min
- Cmax [2, 9]: 9310 ng/mL
- AUC(0-t) [2, 9]: 15100 ng·h/mL
- Tmax [2, 9]: 30 to 60 min
- Cmax [2, 10]: 7380 ng/mL
- AUC(0-t) [2, 10]: 11200 ng·h/mL
- Tmax [2, 10]: 15 to 60 min
- Cmax [2, 11]: 12700 ng/mL
- AUC(0-t) [2, 11]: 16000 ng·h/mL
- Tmax [2, 11]: 15 to 60 min
- Cmax [2, 12]: 5130 ng/mL
- AUC(0-t) [2, 12]: 7710 ng·h/mL
- Tmax [2, 12]: 30 to 60 min
- Cmax [2, 13]: 3300 ng/mL
- AUC(0-t) [2, 13]: 4860 ng·h/mL
- Tmax [2, 13]: 30 to 60 min
- Cmax [2, 14]: 9480 ng/mL
- AUC(0-t) [2, 14]: 11700 ng·h/mL
- Tmax [2, 14]: 30 to 60 min
- Cmax [2, 15]: 6340 ng/mL
- AUC(0-t) [2, 15]: 6340 ng·h/mL
- Tmax [2, 15]: 15 to 60 min
- Cmax [2, 16]: 10000 ng/mL
- AUC(0-t) [2, 16]: 13500 ng·h/mL
- Tmax [2, 16]: 15 to 60 min
- Cmax [2, 17]: 6970 ng/mL
- AUC(0-t) [2, 17]: 9000 ng·h/mL
- Tmax [2, 17]: 4.98 to 60 min
- Effect of high-fat meal on exposure ([3]; 1200 mg within 30 minutes after the start of a high-fat meal): significant reduction in exposure
- Mean exposure to fospropofol (both Cmax and AUC) under fed conditions relative to fasting ([3]; 1200 mg, high-fat meal vs fasting): approximately 24%
- Tmax ([3]; both sexes, human, plasma, oral, 1200 mg, fed, no appreciable effect, read-out: Fospropofol Tmax (median)): 20 min
- AUC(0-inf) ([3]; both sexes, human, plasma, oral fospropofol disodium 1200 mg, Fed (Cohort 8), n = 10/12, mean, read-out: Fospropofol AUC0-∞): 1080 ng·h/mL
- half-life ([3]; both sexes, human, plasma, oral fospropofol disodium 1200 mg, Fed (Cohort 8), n = 10/12, mean, read-out: Fospropofol t1/2 (converted)): 15.6 min
- Cmax ([3]; both sexes, human, plasma, oral fospropofol disodium 1200 mg, Fed (Cohort 8), n= 12, mean): 1790 ng/mL
- AUC(0-t) ([3]; both sexes, human, plasma, oral fospropofol disodium 1200 mg, Fed (Cohort 8), n= 12, mean, read-out: Fospropofol AUC0-T): 993 ng·h/mL
- Tmax ([3]; both sexes, human, plasma, oral fospropofol disodium 1200 mg, Fed (Cohort 8), n= 12, median, read-out: Fospropofol Tmax): 19.8 min
- Fospropofol CL/F ([3]; oral fospropofol disodium 1200 mg, Fed (Cohort 8), n = 10/12, mean): 4122 L/h
